Assay results: paper PMC4932538, “Alkanediamide-Linked Bisbenzamidines Are Promising Antiparasitic Agents” (Pharmaceuticals, 2016)
Entries after “also recorded” stand apart in the source; their conditions may differ. Read-outs that look alike come from different tables or passages of the source.

How the values were obtained:
[1] = test system: intracellular amastigote forms of T. cruzi Tulahuen strain C2C4 in rat skeletal myoblasts (L6 cells); experiment: In vitro anti-T. cruzi activity; format: cell-based, Trypanosoma cruzi; settings: for IC50: average of at least two determinations
Method: (§5) The anti-T. cruzi activity was determined using intracellular amastigote forms of T. cruzi Tulahuen strain C2C4 in rat skeletal myoblasts (L6 cells) as described previously [24]. The anti-L. donovani activity was determined using the amastigotes of L. donovani strain MHOM-ET-67/L82 as described previously [24]. […] The cytotoxicity assays against rat skeletal myoblast L6-cells were performed as described previously [24].

[2] = test system: P. falciparum K1 (chloroquine-resistant); experiment: In vitro anti-plasmodial activity, K1; format: cell-based, Plasmodium falciparum; settings: for pIC50 P. falcip K1: Table S1, from IC50 of Table 1
Method: as §5

[3] = test system: P. falciparum NF54 (chloroquine-sensitive); experiment: In vitro anti-plasmodial activity, NF54; format: cell-based, Plasmodium falciparum
[4] = test system: rat skeletal myoblast L6-cells; experiment: Cytotoxicity against L6 cells; format: cell-based
Method: as §5

[5] = test system: T. b. rhodesiense KETRi 243 (melarsoprol, pentamidine- and diminazene diaceturate-resistant); parameters: method as in PMID 19736009; settings: strain KETRI 243; average of at least two determinations; read-out: IC50 T.b. rhod; cited from earlier work
[6] = test system: T. b. rhodesiense KETRi 243 (melarsoprol, pentamidine- and diminazene diaceturate-resistant); experiment: In vitro antitrypanosomal activity, T.b. rhodesiense KETRI 243; format: cell-based, Trypanosoma brucei rhodesiense; settings: Table S1; from IC50 of Table 1
Method: as §5

poly(dA-dT) = experiment: DNA thermal melting with poly(dA-dT); format: binding; settings: 1:5 compound to DNA base pair ratio; mean of at least two determinations
Method: (§1) In addition to the determination of the potency of the synthesized compounds against different strains of cell lines (Table 1), thermal melting experiments of these compounds were also conducted with poly(dA-dT) and calf thymus DNA (Table S1, supplementary file). […] The weaker binding to DNA (lower ΔTm values) compared to pentamidine might be attributed to the lower lipophilicity and higher PSA properties of these compounds since they would be expected to bind less favorably in the less polar environment of the minor grove of DNA as was reported for the aza-analogues of furamidine. […] Therefore, ability of these compounds to act at other potential targets cannot be ruled out.
(§2) The DNA binding affinity of the tested compounds was determined by measuring the change in mid-point of the thermal denaturation curves for a 1:5 compound to DNA base pair ratio as described previously. Each Tm value reported in Table S1 (supplementary file) represents the mean of at least two experimental determinations.

calf thymus DNA = experiment: DNA thermal melting with calf thymus DNA; format: binding; settings: 1:5 compound to DNA base pair ratio; mean of at least two determinations
Method: as §1, §2

[7] = test system: T. b. brucei Lab 110 EATRO (pentamidine-sensitive); experiment: In vitro antitrypanosomal activity, T.b. brucei Lab 110 EATRO; format: cell-based, Trypanosoma brucei brucei; settings: Table S1; from IC50 of Table 1
Method: The in vitro assays with the two isolates of T. brucei were conducted according to previously described procedures [14].

[8] = test system: amastigotes of L. donovani strain MHOM-ET-67/L82; experiment: In vitro anti-L. donovani activity; format: cell-based, Leishmania donovani; settings: for IC50: average of at least two determinations
Method: as §5

[9] = test system: T. b. brucei Lab 110 EATRO (pentamidine-sensitive); parameters: method as in PMID 19736009; settings: strain Lab 110; average of at least two determinations; cited from earlier work
[10] = test system: both strains of P. falciparum; experiment: In vitro activity and selectivity, both strains of P. falciparum; format: cell-based, Plasmodium falciparum
Method: The selectivity index of these compounds for T. brucei (SIT.b) or P. falciparum (SIP.f) are defined as the ratio of the L6 cells IC50 to the T. brucei or P. falciparum IC50 values.
The in vitro assays with the two isolates of T. brucei were conducted according to previously described procedures [14]. […] The cytotoxicity assays against rat skeletal myoblast L6-cells were performed as described previously [24].

[11] = test system: T.b. brucei Lab 110 EATRO; experiment: In vivo trypanocidal activity in mice, Lab 110 EATRO
Method: (§3) The compounds were administered via the intraperitoneal route at doses ranging from 1.0 mg/kg/day to 25.0 mg/kg/day for 3 days unless otherwise noted. Pentamidine was used as the reference compound. All three of the tested compounds were effective in curing mice infected with the Lab 110 EATRO or KETRI 2002 strains at several doses.
(§4) The in vivo studies were conducted according to the procedures described previously.

[12] = test system: T.b. rhodesiense KETRI 2002; experiment: In vivo trypanocidal activity in mice, KETRI 2002
Method: as §3, §4

[13] = chloroquine-resistant strain, read-out: IC50 P. falcip K1
[14] = cytotoxicity, read-out: IC50 L6 Cells
[15] = chloroquine-sensitive strain, read-out: IC50 P. falcip NF54

Compound	IC50 [5] [nM]	pIC50 P. falcip K1 [2]	IC50 [2, 13] [nM]	pIC50 T.b. rhod [6]	IC50 [4, 14] [nM]	Thermal Melting ΔTm Poly(dA-dT) (poly(dA-dT)) [C]	Thermal Melting ΔTm CT-DNA (calf thymus DNA) [C]	IC50 [1] [nM]	pIC50 T.b. brucei [7]	IC50 [8] [nM]	IC50 [9] [nM]	IC50 [3, 15] [nM]	also measured
O=C(Cn1ccnc1[N+](=O)[O-])NCc1ccccc1 [benznidazole, reference compound]													IC50 ([1]; Trypanosoma cruzi, TULAHUEN, L6): 1130 nM
CCN(CC)CCCC(C)Nc1ccnc2cc(Cl)ccc12 (stereo not shown) [chloroquine, reference compound]													IC50 ([2]; Plasmodium falciparum, K1, read-out: IC50 P. falcip K1): 180 nM; IC50 ([3]; Plasmodium falciparum, NF54, read-out: IC50 P. falcip NF54): 6 nM
COc1cc([C@@H]2c3cc4c(cc3[C@H](O)[C@H]3COC(=O)[C@H]23)OCO4)cc(OC)c1OC [podophyllotoxin, reference compound]													IC50 ([4]; Rattus norvegicus, L6, read-out: IC50 L6 Cells): 10 nM
N,N′-bis[4-(aminoiminomethyl)phenyl] butane-1,4-dicarboxamide [Compound 2]	2190	6.538	290	5.660	28000	11.5	8.1	> 100000	5.046	> 100000	9000		
N,N′-bis[4-(aminoiminomethyl)phenyl] dodecane-1,12-dicarboxamide [Compound 15]	7	7.824	15	8.155	80200	8.5		80900	8.097	10700	8	32	
N,N′-bis[4-(aminoiminomethyl)phenyl] ethane-1,2-dicarboxamide [Compound 1]		8.523	3		> 100000			> 100000		> 100000		8	IC50 ([10]; range over NF54 and K1, read-out: IC50 against both strains of P. falciparum): 3 to 8 nM; selectivity index for P. falciparum (SIP.f) ([10]; ratio of the L6 cells IC50 to the P. falciparum IC50): > 33,000; activity against T. cruzi ([1]; in vitro): inactive; activity against L. donovani ([8]; in vitro): inactive
N,N′-bis[4-(aminoiminomethyl)phenyl] heptane-1,7-dicarboxamide [Compound 11]	2	8.699	2	8.699	43000	10.7	6.4	> 100000	8.699	> 100000	2	2	Mean Survival ([11]; 1.0, 2.5, 5, 10 mg/kg/day i.p. for 3 days (all doses)): >30 days; curing of infected mice ([11]; i.p., 3 days): the most effective; also recorded: highly effective; curing of infected mice ([12]; KETRI 2002, i.p., 3 days): the most effective; also recorded: highly effective; Mean Survival ([12]; KETRI 2002, 1.0, 2.5, 5, 10 mg/kg/day i.p. for 3 days (all doses)): >30 days
N,N′-bis[4-(aminoiminomethyl)phenyl] nonane-1,9-dicarboxamide [Compound 13]	240	8.097	8	6.620	49200	7.5	4.6	99500	6.398	67400	400	2	
